Results on five molecules are retold here after PMC6149664, “Synthesis and In Vitro Antimycobacterial Activity of Novel N-Arylpiperazines Containing an Ethane-1,2-diyl Connecting Chain” (Molecules : A Journal of Synthetic Chemistry and Natural …, 2017).

Each structure is given as a SMILES string. ≈ marks a conversion by molar mass, not a printed value. Like-named read-outs stand apart in the source and are kept apart here. A value given as a limit tells only on which side of the number the result lay.

For assay [1], the system named is M. kansasii CNCTC My 235/80 (identical with ATCC 12478). In words: In vitro antimycobacterial MIC, dilution-micromethod in Šula semisynthetic medium. It is filed as cell-based, Mycobacterium kansasii.
Assay [2] concerns M. tuberculosis CNCTC My 331/88 (identical with H37Rv and ATCC 2794). Described as above. The format is cell-based. The settings on record: Mycobacterium tuberculosis.
The subject of assay [3] is M. kansasii 6 509/96 clinical isolate. Described as above. The format is cell-based. Particulars: Mycobacterium kansasii, read-out: MIC, MK 6 509/96.
In assay [4] the test system is M. avium subsp. paratuberculosis CIT03. In words: microbe, parasite or virus in culture. The format is cell-based. The settings on record: Mycobacterium avium, 168 h, read-out: MIC, MAP CIT03.
Assay [5] relates to M. avium hominissuis CIT10/08. Description: In vitro antimycobacterial MIC (IC90), alamarBlue 96-well assay in Middlebrook broth. The format is cell-based, Mycobacterium avium hominissuis. Particulars: Mycobacterium avium, 168 h, 7 days incubation, read-out: MIC, MAH CIT10/08. (Alamar Blue is a resazurin reagent that responds to reducing activity.)
Assay [6] concerns M. avium intracellulare ATCC 13950. Described as above. The format is cell-based, Mycobacterium avium intracellulare. The settings on record: Mycobacterium avium, ATCC13950, 168 h, 7 days incubation, read-out: MIC, MAI ATCC 13950.
Assay [7] has as its system M. avium CNCTC My 330/80 (identical with ATCC 25291). Description: In vitro antimycobacterial MIC, dilution-micromethod in Šula semisynthetic medium. The format is cell-based. Particulars: Mycobacterium avium.
The next assay relates to M. kansasii CIT11/06. Description: In vitro antimycobacterial MIC (IC90), alamarBlue 96-well assay in Middlebrook broth. The settings on record: 7 days incubation, read-out: MIC, MK CIT11/06. It is filed as cell-based, Mycobacterium kansasii.
Setting [8] is: Mycobacterium kansasii, ATCC12478, 168 h, 7 d cultivation, read-out: MIC, MK My 235/80.
Where [9] appears, read: Mycobacterium kansasii, ATCC12478, 336 h, 14 d cultivation, read-out: MIC, MK My 235/80.
Where [10] appears, read: Mycobacterium kansasii, ATCC12478, 504 h, 21 d cultivation, read-out: MIC, MK My 235/80.
Where [11] appears, read: 336 h, 14 d cultivation, read-out: MIC, MT My 331/88.
[12] abbreviates: 504 h, 21 d cultivation, read-out: MIC, MT My 331/88.
Setting [13] is: ATCC25291, 336 h, 14 d cultivation, read-out: MIC, MA My 330/88.
The mark [14] stands for this setting: ATCC25291, 504 h, 21 d cultivation, read-out: MIC, MA My 330/88.
[15] abbreviates: Mycobacterium kansasii, CIT11/06, 168 h.
The mark [16] stands for this setting: Mycobacterium kansasii, ATCC12478, 336 h, both M. kansasii strains, depending on strain and number of days of incubation (standards: 14-d/21-d), read-out: MIC against M. kansasii My 235/80 and M. kansasii 6 509/96.
[17] abbreviates: both M. kansasii strains, depending on strain and number of days of incubation (standards: 14-d/21-d), read-out: MIC against M. kansasii My 235/80 and M. kansasii 6 509/96.

On to `NNC(=O)c1ccncc1` [INH, isonicotinic acid hydrazide, reference compound], for which the MIC was greater than 250 µM in assay [1] (setting [8]); greater than 250 µM in assay [1] (setting [9]); greater than 250 µM in assay [1] (setting [10]); 0.5 µM (≈ 0.0686 µg/mL) in assay [2] (336 h, 14-d/21-d cultivation, read-out: MIC against M. tuberculosis CNCTC My 331/88); 0.5 µM (≈ 0.0686 µg/mL) in assay [2] (setting [11]); 0.5 µM (≈ 0.0686 µg/mL) in assay [2] (setting [12]). The MIC was 4 µM (≈ 0.549 µg/mL) in assay [3] (168 h, 7 d cultivation); 8 µM (≈ 1.1 µg/mL) in assay [3] (336 h, 14 d cultivation); 8 µM (≈ 1.1 µg/mL) in assay [3] (504 h, 21 d cultivation); greater than 1820 µM in assay [4]; greater than 1820 µM in assay [5]; greater than 1820 µM in assay [6]. Also, the MIC is greater than 250 µM in assay [7] (setting [13]), greater than 250 µM in assay [7] (setting [14]) and greater than 1820 µM with M. kansasii CIT11/06 (setting [15]).
Regarding `NC(=O)c1cnccn1` [PZA, pyrazinamide, reference compound], the MIC in assay [4] was greater than 2030 µM; in assay [5], 487 µM (≈ 60 µg/mL); in assay [6], greater than 2030 µM; in the assay on M. kansasii CIT11/06 (setting [15]), greater than 2030 µM.
Consider `CC[C@@H](CO)NCCN[C@@H](CC)CO` [EMB, ethambutol, reference compound], for which the MIC came to 1 µM (≈ 0.204 µg/mL) in assay [1] (setting [8]); 2 µM (≈ 0.409 µg/mL) in assay [1] (setting [9]); 1 µM (≈ 0.204 µg/mL) in assay [1] (setting [16]); 2 µM (≈ 0.409 µg/mL) in assay [1] (setting [10]); 2 µM (≈ 0.409 µg/mL) in assay [1] (setting [17]); 1 µM (≈ 0.204 µg/mL) in assay [2] (setting [11]). The MIC in assay [2] (setting [12]) amounted to 2 µM (≈ 0.409 µg/mL); in assay [3] (168 h, 7 d cultivation), 1 µM (≈ 0.204 µg/mL); in assay [3] (336 h, 14 d cultivation) it was 2 µM (≈ 0.409 µg/mL); in assay [3] (504 h, 21 d cultivation), 2 µM (≈ 0.409 µg/mL); in assay [7] (ATCC25291, 336 h, 14-d/21-d, read-out: MIC against M. avium CNCTC My 330/80), 16 µM (≈ 3.27 µg/mL); in assay [7] (setting [13]), 16 µM (≈ 3.27 µg/mL). Moreover, the MIC in assay [7] (setting [14]) stood at 16 µM (≈ 3.27 µg/mL).
As to `O=C(O)c1cn(C2CC2)c2cc(N3CCNCC3)c(F)cc2c1=O` [CPX, ciprofloxacin, reference compound], the MIC with M. kansasii CIT11/06 and with M. kansasii CIT11/06 (setting [15]) was greater than 91 µM throughout.
With `CC1COc2c(N3CCN(C)CC3)c(F)cc3c(=O)c(C(=O)O)cn1c23` (stereo not shown) [OFLX, ofloxacin, reference compound], the MIC in assay [1] (setting [8]) amounted to 0.5 µM (≈ 0.181 µg/mL); in assay [1] (setting [9]), 1 µM (≈ 0.361 µg/mL); in assay [1] (setting [16]), 0.5 µM (≈ 0.181 µg/mL); in assay [1] (setting [10]), 1 µM (≈ 0.361 µg/mL); in assay [1] (setting [17]), 1 µM (≈ 0.361 µg/mL); in assay [2] (setting [11]) it was 1 µM (≈ 0.361 µg/mL). Besides, the MIC is 2 µM (≈ 0.723 µg/mL) in assay [2] (setting [12]); 0.5 µM (≈ 0.181 µg/mL) in assay [3] (168 h, 7 d cultivation); 0.5 µM (≈ 0.181 µg/mL) in assay [3] (336 h, 14 d cultivation); 1 µM (≈ 0.361 µg/mL) in assay [3] (504 h, 21 d cultivation); 32 µM (≈ 11.6 µg/mL) in assay [7] (setting [13]); 62.5 µM (≈ 22.6 µg/mL) in assay [7] (setting [14]).
